Measured values: paper PMC10584170, “Machine learning-based phenotypic imaging to characterise the targetable biology of Plasmodium falciparum male gametocytes for the development of transmission-blocking antimalarials” (PLOS Pathogens, 2023)
pIC50: −log10 of the molar value. Read-outs that look alike come from different tables or passages of the source. Values belong to the compound of their own block, whether it stands above or below them.

Tests used:
[1] = system: P. falciparum male gametocytes; experiment: P. falciparum Dual Gamete Formation Assay (PfDGFA), male readout (exflagellation); format: cell-based, Plasmodium falciparum NF54; conditions: for Selectivity Ratio M: HepG2 Tox50 versus male IC50; for inhibition at 2 µM / pIC50: Plasmodium falciparum; for inhibition at 2 µM: 24h preincubation with gametocytes; for pIC50: PfDGFA, 24 h incubation with gametocytes before induction, exflagellation readout, read-out: Male IC50; for Activity: hit = >50% inhibition in male or female readout in at least 3 replicates, 0 = no class assigned
Method: (§1) P. falciparum NF54 (originally isolated from an imported malaria case in the Netherlands in the 1980s; BEI Resources, cat. No. MRA-1000) strain asexual parasites were maintained between 0.3–5% parasitaemia by regular passage in complete culture medium (RPMI supplemented with 25 mM HEPES, 50 μg ml^−1 hypoxanthine, 4.8 g l^−1 NaHCO3, 2mM L-glutamine, 5% pooled type AB serum, 0.5% Albumax II (Gibco)) at 4% haematocrit in washed whole blood (National Blood and Transfusion Service or Centro de Transfusiones de la Comunidad de Madrid CTCM) under a 1% O2/3% CO2/96% N2 environment. Gametocytes were induced by seeding culture flasks at 2% parasitaemia/4% haematocrit and subjecting them to daily medium changes for 14 days whilst maintaining a temperature of 37°C at all times. On Day 14, the maturity of gametocytes was assessed by quantifying male gametogenesis (exflagellation). A 20 μl sample of gametocyte culture was mixed with equal volume of ookinete medium (complete culture medium supplemented with 0.1 μM xanthurenic acid) at room temperature and transferred to a haemocytometer. After 20 min at room temperature, exflagellation was accurately quantified as described in Delves et al. 2016 [17].
(§2) The Pf DGFA was performed as described in Delves et al. 2016 [17]. […] Plates were then incubated for 24 h at 37°C in a humidified box under a 1% O2/3% CO2/96% N2 gas mix. Gametogenesis was triggered by addition of 10 μl per well of ookinete medium + 0.27 μg ml^-1 Cy3-labelled anti-Pfs25 antibody. Plates were incubated on a metal block at 4°C for 4 min to ensure even cooling, then 28°C for a further 4 min. Exflagellation was recorded by capturing 10 frames over 1 s under brightfield illumination using a x4 objective with a 1.5x zoom (effectively x6) attached to an automated Nikon Ti fluorescence microscope. After recording exflagellation, plates were incubated for a further 24 h in the dark at 28°C to ensure maximal expression of Pfs25 by female gametes. The plates were then returned to the microscope and female gametes imaged at x6 using fluorescence microscopy.
(§3) Exflagellation centres and female gametes were quantified using custom image analysis pipelines developed within ICY Bioimage Analysis (https://icy.bioimageanalysis.org/).

[2] = system: P. falciparum female gametocytes; experiment: P. falciparum Dual Gamete Formation Assay (PfDGFA), female readout (Pfs25-positive female gametes); format: cell-based, Plasmodium falciparum NF54; conditions: for Selectivity ratio F: HepG2 Tox50 versus female IC50; for inhibition at 2 µM / pIC50: Plasmodium falciparum; for inhibition at 2 µM: 24h preincubation with gametocytes; for pIC50: PfDGFA, 24 h incubation with gametocytes before induction, female gamete readout, read-out: Female IC50
Method: as §1, §2, §3

[3] = 2µM, 24h preincubation with gametocytes prior to induction of gametogenesis, average of replicates
[4] = 2µM, 24h preincubation with gametocytes prior to induction of gametogenesis, replicate R1
[5] = 2µM, 24h preincubation with gametocytes prior to induction of gametogenesis, replicate R3
[6] = 2µM, 24h preincubation with gametocytes prior to induction of gametogenesis, replicate R4
[7] = 2µM, 24h preincubation, number of replicates with >50% inhibition in the male readout
[8] = 2µM, 24h preincubation, number of replicates with >50% inhibition in the female readout
[9] = PfDGFA at 2µM, 24h preincubation with gametocytes prior to induction of gametogenesis, replicate R1
[10] = PfDGFA at 2µM, 24h preincubation with gametocytes prior to induction of gametogenesis, replicate R3
[11] = PfDGFA at 2µM, 24h preincubation with gametocytes prior to induction of gametogenesis, replicate R4
[12] = PfDGFA at 2µM, 24h preincubation, average of replicates
[13] = PfDGFA at 2µM, average of replicates, read-out: Average inhibition male (%)
[14] = PfDGFA at 2µM, replicate R1, read-out: % inhibition male (individual replicates) R1
[15] = PfDGFA at 2µM, replicate R2, read-out: % inhibition male (individual replicates) R2
[16] = PfDGFA at 2µM, replicate R3, read-out: % inhibition male (individual replicates) R3
[17] = PfDGFA at 2µM, replicate R4, read-out: % inhibition male (individual replicates) R4
[18] = number of replicates with >50% inhibition in the male readout, 2µM
[19] = PfDGFA at 2µM, average of replicates, read-out: Average inhibition female (%)
[20] = PfDGFA at 2µM, replicate R1, read-out: % inhibition female (individual replicates) R1
[21] = PfDGFA at 2µM, replicate R2, read-out: % inhibition female (individual replicates) R2
[22] = PfDGFA at 2µM, replicate R3, read-out: % inhibition female (individual replicates) R3
[23] = PfDGFA at 2µM, replicate R4, read-out: % inhibition female (individual replicates) R4
[24] = number of replicates with >50% inhibition in the female readout, 2µM
[25] = 2µM, 24h preincubation, hits selected on >50% inhibition in the male readout across replicates
[26] = PfDGFA at 2µM, 24h preincubation
[27] = 2µM, 24h preincubation, hits selected on >50% inhibition in the female readout across replicates

Compound: CC(C)(C)Nc1cc(C2CC2)nc(-c2ccccn2)n1 [TCMDC-124453]
Average inhibition male (%) [1, 3]: 8.7%
% inhibition male (individual replicates) R1 [1, 4]: 15.7%
% inhibition male (individual replicates) R3 [1, 5]: 8.7%
% inhibition male (individual replicates) R4 [1, 6]: 17.6%
HitlevelM [1, 7]: 0
Average inhibition female (%) [2, 3]: 32.5%
% inhibition female (individual replicates) R1 [2, 4]: 36.3%
% inhibition female (individual replicates) R3 [2, 5]: 27.2%
% inhibition female (individual replicates) R4 [2, 6]: 34.1%
HitlevelF [2, 8]: 0

Compound: Cc1ccc(-c2nnc3c4ccccc4c(C)nn23)cc1S(=O)(=O)N1CCN(CCO)CC1 [TCMDC-124482]
% inhibition male (individual replicates) R1 [1, 9]: 14.3%
% inhibition male (individual replicates) R3 [1, 10]: -2.0%
% inhibition male (individual replicates) R4 [1, 11]: 34.9%
Average inhibition male (%) [1, 12]: 14.9%
% inhibition female (individual replicates) R1 [2, 9]: 11.9%
% inhibition female (individual replicates) R3 [2, 10]: -40.2%
% inhibition female (individual replicates) R4 [2, 11]: 14.7%
Average inhibition female (%) [2, 12]: -3.6%

pIC50 [1]: 6.14
pIC50 [2]: 6.25
Compound: Cn1c(Sc2ncnc3sccc23)nc2ccccc21 [TCMDC-124514]
Selectivity Ratio M [1]: 138.65
inhibition at 2 µM [1, 13]: 74.4%
inhibition at 2 µM [1, 14]: 82.1%
inhibition at 2 µM [1, 15]: 75.9%
inhibition at 2 µM [1, 16]: 86.7%
inhibition at 2 µM [1, 17]: 52.9%
HitlevelM [1, 18]: 4
Selectivity ratio F [2]: 179.15
inhibition at 2 µM [2, 19]: 56.9%
inhibition at 2 µM [2, 20]: 48.2%
inhibition at 2 µM [2, 21]: 73.8%
inhibition at 2 µM [2, 22]: 37.5%
inhibition at 2 µM [2, 23]: 68.1%
HitlevelF [2, 24]: 2

pIC50 [1]: 5.11
pIC50 [2]: < 5.00
Compound: O=C(NC1CCN(Cc2ccccc2)CC1)c1cc(C(=O)NC2CCN(Cc3ccccc3)CC2)cc(C(=O)NC2CCN(Cc3ccccc3)CC2)c1 [TCMDC-124568]
Selectivity Ratio M [1]: 12.97
inhibition at 2 µM [1, 13]: 80%
inhibition at 2 µM [1, 14]: 85%
inhibition at 2 µM [1, 15]: 82%
inhibition at 2 µM [1, 16]: 68.9%
inhibition at 2 µM [1, 17]: 84.2%
HitlevelM [1, 18]: 4
Selectivity ratio F [2]: 10.00
inhibition at 2 µM [2, 19]: 37.6%
inhibition at 2 µM [2, 20]: 24.6%
inhibition at 2 µM [2, 21]: 60.5%
inhibition at 2 µM [2, 22]: 22.2%
inhibition at 2 µM [2, 23]: 43.3%
HitlevelF [2, 24]: 1

Compound: COc1cc(C(=O)NC2CCc3ccccc32)cc(Cl)c1OC (stereo not shown) [TCMDC-124601]
% inhibition male (individual replicates) R1 [1, 9]: 0.65%
% inhibition male (individual replicates) R4 [1, 11]: 7.9%
Average inhibition male (%) [1, 12]: 1.1%
% inhibition female (individual replicates) R1 [2, 9]: 1.9%
% inhibition female (individual replicates) R3 [2, 10]: -2.4%
% inhibition female (individual replicates) R4 [2, 11]: 1.9%
Average inhibition female (%) [2, 12]: -0.8%

Compound: CN1CCC(N2CCC(Oc3cccc(C(=O)NCCCC4CCCC4)c3)CC2)CC1 [TCMDC-124677]
Average inhibition male (%) [1, 3]: 46.8%
% inhibition male (individual replicates) R1 [1, 4]: 55.2%
% inhibition male (individual replicates) R3 [1, 5]: 20.7%
% inhibition male (individual replicates) R4 [1, 6]: 57.6%
HitlevelM [1, 7]: 3
Average inhibition female (%) [2, 3]: 28.5%
% inhibition female (individual replicates) R1 [2, 4]: 33.3%
% inhibition female (individual replicates) R3 [2, 5]: 20.8%
% inhibition female (individual replicates) R4 [2, 6]: 15.0%
HitlevelF [2, 8]: 0

Compound: Cc1ccc(-n2cc(CNCC3CCN(CCO)CC3)c(-c3ccc(F)cc3)n2)cc1 [TCMDC-124689]
Average inhibition male (%) [1, 3]: 53.6%
% inhibition male (individual replicates) R1 [1, 4]: 49.0%
% inhibition male (individual replicates) R4 [1, 6]: 58.1%
HitlevelM [1, 7]: 2
Average inhibition female (%) [2, 3]: 19.9%
% inhibition female (individual replicates) R1 [2, 4]: 20.1%
% inhibition female (individual replicates) R3 [2, 5]: 19.4%
% inhibition female (individual replicates) R4 [2, 6]: 10.0%
HitlevelF [2, 8]: 0

Compound: O=C(c1ccc([N+](=O)[O-])o1)N1CCN(c2nc3c(F)cc(F)cc3s2)CC1 [TCMDC-125149]
Average inhibition male (%) [1, 3]: 6.8%
% inhibition male (individual replicates) R1 [1, 4]: 35.5%
% inhibition male (individual replicates) R3 [1, 5]: -37.1%
% inhibition male (individual replicates) R4 [1, 6]: -11.8%
HitlevelM [1, 25]: 0
Activity [1, 26]: 0
Average inhibition female (%) [2, 3]: 6.5%
% inhibition female (individual replicates) R1 [2, 4]: 10.3%
% inhibition female (individual replicates) R3 [2, 5]: -4.5%
% inhibition female (individual replicates) R4 [2, 6]: 0.07%
HitlevelF [2, 27]: 0

Compound: CNCCCNCc1ccc(-c2ccc(F)c(Cl)c2)o1.Cl [TCMDC-125237]
Average inhibition male (%) [1, 3]: 15.1%
% inhibition male (individual replicates) R1 [1, 4]: 6.0%
% inhibition male (individual replicates) R4 [1, 6]: 19.5%
HitlevelM [1, 25]: 0
Activity [1, 26]: 0
Average inhibition female (%) [2, 3]: 13.7%
% inhibition female (individual replicates) R1 [2, 4]: 17.7%
% inhibition female (individual replicates) R3 [2, 5]: 9.1%
% inhibition female (individual replicates) R4 [2, 6]: 15.1%
HitlevelF [2, 27]: 0

pIC50 [1]: 5.91
pIC50 [2]: 5.97
Compound: COCCn1c(Sc2ncnc3sccc23)nc2ccccc21 [TCMDC-125258]
Selectivity Ratio M [1]: 81.39
inhibition at 2 µM [1, 13]: 69.9%
inhibition at 2 µM [1, 14]: 86.4%
inhibition at 2 µM [1, 15]: 73.7%
inhibition at 2 µM [1, 16]: 49.8%
inhibition at 2 µM [1, 17]: 69.6%
HitlevelM [1, 18]: 3
Selectivity ratio F [2]: 94.48
inhibition at 2 µM [2, 19]: 60.4%
inhibition at 2 µM [2, 20]: 48.4%
inhibition at 2 µM [2, 21]: 75.4%
inhibition at 2 µM [2, 22]: 37.4%
inhibition at 2 µM [2, 23]: 80.3%
HitlevelF [2, 24]: 2

Compound: NC(=O)c1ccsc1NC(=O)CNC(c1ccccc1)c1ccc(Cl)cc1 (stereo not shown) [TCMDC-125330]
% inhibition male (individual replicates) R1 [1, 9]: -5.4%
% inhibition male (individual replicates) R3 [1, 10]: -28.2%
% inhibition male (individual replicates) R4 [1, 11]: -28.5%
Average inhibition male (%) [1, 12]: -19.7%
% inhibition female (individual replicates) R1 [2, 9]: 0.32%
% inhibition female (individual replicates) R3 [2, 10]: -9.3%
% inhibition female (individual replicates) R4 [2, 11]: 6.9%
Average inhibition female (%) [2, 12]: 1.5%

Compound: O=C(Nc1nc(-c2ccccn2)cs1)c1ccc(S(=O)(=O)N2CCc3ccccc32)cc1 [TCMDC-125432]
Average inhibition male (%) [1, 3]: -21.9%
% inhibition male (individual replicates) R1 [1, 4]: -19.8%
% inhibition male (individual replicates) R3 [1, 5]: -49.6%
% inhibition male (individual replicates) R4 [1, 6]: -25.8%
HitlevelM [1, 7]: 0
Average inhibition female (%) [2, 3]: 23.2%
% inhibition female (individual replicates) R1 [2, 4]: 27.4%
% inhibition female (individual replicates) R3 [2, 5]: 14.7%
% inhibition female (individual replicates) R4 [2, 6]: 30.9%
HitlevelF [2, 8]: 0

Compound: COc1ccc(-c2csc3nc(C)nc(Cl)c23)cc1OC [TCMDC-125523]
Average inhibition male (%) [1, 3]: -3.5%
% inhibition male (individual replicates) R1 [1, 4]: -8.3%
% inhibition male (individual replicates) R3 [1, 5]: -15.7%
% inhibition male (individual replicates) R4 [1, 6]: 6.2%
HitlevelM [1, 25]: 0
Activity [1, 26]: 0
Average inhibition female (%) [2, 3]: 3.7%
% inhibition female (individual replicates) R1 [2, 4]: 4.5%
% inhibition female (individual replicates) R3 [2, 5]: -29.0%
% inhibition female (individual replicates) R4 [2, 6]: 16.0%
HitlevelF [2, 27]: 0
